Assay results: ChEMBL document CHEMBL5291721, “A preclinical secondary pharmacology resource illuminates target-adverse drug reaction associations of marketed drugs” (Nat Commun, 2023)
Values joined by “and” are separate entries in the source; they are usually repeats but may differ in a detail not shown here. Equal entries are not always repeated.

Columns and labels:
D(1A) dopamine receptor = D(1A) dopamine receptor (Homo sapiens, UniProt P21728); format: functional, cell-based
[1] = target: Delta-type opioid receptor (Homo sapiens, UniProt P41143)
[2] = target: T1, Equilibrative nucleoside transporter 1 (Homo sapiens, UniProt Q99808)
T1 sequence (Q99808 whole entry): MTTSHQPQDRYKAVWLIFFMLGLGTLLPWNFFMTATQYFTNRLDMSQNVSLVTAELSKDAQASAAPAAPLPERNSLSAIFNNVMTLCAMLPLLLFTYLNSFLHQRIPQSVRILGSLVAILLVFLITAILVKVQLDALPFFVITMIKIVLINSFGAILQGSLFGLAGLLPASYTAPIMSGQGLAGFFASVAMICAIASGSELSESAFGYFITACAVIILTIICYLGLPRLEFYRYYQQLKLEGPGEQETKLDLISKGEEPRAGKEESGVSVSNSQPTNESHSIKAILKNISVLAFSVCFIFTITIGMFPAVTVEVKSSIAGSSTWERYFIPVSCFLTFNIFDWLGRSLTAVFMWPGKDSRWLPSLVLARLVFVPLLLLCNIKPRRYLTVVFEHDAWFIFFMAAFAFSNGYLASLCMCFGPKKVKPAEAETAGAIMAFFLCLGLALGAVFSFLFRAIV

[3] = target: Beta-2 adrenergic receptor (Homo sapiens, UniProt P07550); format: functional, cell-based
Histamine H3 receptor = Histamine H3 receptor (Homo sapiens, UniProt Q9Y5N1)
Progesterone receptor = target: T2, Progesterone receptor (Homo sapiens, UniProt P06401); format: functional
T2 sequence (P06401 whole entry): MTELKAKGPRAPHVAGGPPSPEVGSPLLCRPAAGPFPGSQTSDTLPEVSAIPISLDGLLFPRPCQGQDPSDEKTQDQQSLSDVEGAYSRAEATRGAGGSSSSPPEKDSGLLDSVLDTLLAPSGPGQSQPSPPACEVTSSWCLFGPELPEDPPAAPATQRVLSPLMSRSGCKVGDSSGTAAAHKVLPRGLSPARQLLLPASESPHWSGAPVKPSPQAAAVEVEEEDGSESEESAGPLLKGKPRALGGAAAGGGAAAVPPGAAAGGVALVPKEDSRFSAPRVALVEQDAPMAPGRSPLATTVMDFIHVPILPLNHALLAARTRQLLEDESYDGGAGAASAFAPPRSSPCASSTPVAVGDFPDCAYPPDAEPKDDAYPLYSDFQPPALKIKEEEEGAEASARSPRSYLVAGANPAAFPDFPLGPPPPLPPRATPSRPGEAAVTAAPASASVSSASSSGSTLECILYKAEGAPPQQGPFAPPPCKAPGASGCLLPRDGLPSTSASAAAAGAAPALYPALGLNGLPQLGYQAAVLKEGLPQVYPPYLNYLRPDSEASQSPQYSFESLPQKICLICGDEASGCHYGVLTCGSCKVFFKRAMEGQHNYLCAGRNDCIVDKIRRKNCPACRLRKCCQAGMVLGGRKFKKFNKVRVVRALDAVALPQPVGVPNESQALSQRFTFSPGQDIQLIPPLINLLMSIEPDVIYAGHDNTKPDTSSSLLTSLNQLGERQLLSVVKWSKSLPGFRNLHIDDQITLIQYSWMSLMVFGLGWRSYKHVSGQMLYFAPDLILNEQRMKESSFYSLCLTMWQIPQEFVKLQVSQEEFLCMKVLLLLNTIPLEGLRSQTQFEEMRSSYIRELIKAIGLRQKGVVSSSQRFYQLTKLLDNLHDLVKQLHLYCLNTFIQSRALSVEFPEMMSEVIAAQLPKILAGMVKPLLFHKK

[4] = target: T3, Alpha-1A adrenergic receptor (Homo sapiens, UniProt P35348); format: functional, cell-based
T3 sequence (P35348 whole entry): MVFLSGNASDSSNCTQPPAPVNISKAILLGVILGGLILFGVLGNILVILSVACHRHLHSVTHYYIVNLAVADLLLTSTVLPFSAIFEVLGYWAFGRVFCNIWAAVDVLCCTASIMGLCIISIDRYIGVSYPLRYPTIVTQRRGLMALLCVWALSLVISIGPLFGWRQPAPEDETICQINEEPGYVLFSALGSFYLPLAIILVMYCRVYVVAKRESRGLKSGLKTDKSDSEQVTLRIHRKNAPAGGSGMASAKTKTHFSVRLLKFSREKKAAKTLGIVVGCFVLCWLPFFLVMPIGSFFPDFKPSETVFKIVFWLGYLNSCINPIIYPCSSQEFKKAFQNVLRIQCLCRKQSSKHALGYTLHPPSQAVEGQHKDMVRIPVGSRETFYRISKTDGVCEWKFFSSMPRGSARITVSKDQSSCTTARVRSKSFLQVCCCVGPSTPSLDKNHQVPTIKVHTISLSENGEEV

[5] = target: Vascular endothelial growth factor receptor 2 (Homo sapiens, UniProt P35968); format: functional
[6] = target: 3',5'-cyclic-AMP phosphodiesterase 4D (Homo sapiens, UniProt Q08499); format: functional
[7] = target: T4, Alpha-2A adrenergic receptor (Homo sapiens, UniProt P08913); format: functional, cell-based
T4 sequence (P08913 whole entry): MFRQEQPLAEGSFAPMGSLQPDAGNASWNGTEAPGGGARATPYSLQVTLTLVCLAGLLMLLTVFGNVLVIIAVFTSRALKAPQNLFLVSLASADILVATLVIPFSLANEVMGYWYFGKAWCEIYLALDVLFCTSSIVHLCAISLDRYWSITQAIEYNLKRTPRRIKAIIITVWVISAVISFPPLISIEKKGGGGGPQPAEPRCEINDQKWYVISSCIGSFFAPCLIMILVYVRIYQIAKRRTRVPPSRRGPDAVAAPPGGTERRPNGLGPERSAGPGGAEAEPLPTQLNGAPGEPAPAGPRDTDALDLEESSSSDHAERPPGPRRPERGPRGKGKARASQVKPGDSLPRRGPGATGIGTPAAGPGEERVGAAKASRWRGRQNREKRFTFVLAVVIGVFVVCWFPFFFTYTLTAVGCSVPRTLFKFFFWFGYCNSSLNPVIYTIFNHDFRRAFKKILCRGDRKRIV
Further: assay procedure not described here.

Sequence of Histamine H3 receptor (Q9Y5N1 whole entry): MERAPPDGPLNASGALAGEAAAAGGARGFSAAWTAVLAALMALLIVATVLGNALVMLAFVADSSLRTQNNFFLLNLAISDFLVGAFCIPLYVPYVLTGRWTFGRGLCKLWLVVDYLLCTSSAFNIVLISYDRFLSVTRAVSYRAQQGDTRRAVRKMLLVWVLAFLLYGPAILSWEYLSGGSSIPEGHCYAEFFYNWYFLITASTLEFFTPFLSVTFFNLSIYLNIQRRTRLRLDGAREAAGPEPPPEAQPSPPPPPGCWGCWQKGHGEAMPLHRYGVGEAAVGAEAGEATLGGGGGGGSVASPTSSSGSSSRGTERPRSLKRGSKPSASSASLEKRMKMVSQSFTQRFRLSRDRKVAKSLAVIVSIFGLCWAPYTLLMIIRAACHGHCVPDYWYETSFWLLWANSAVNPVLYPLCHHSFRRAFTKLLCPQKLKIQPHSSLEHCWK
Sequence of D(1A) dopamine receptor (P21728 whole entry): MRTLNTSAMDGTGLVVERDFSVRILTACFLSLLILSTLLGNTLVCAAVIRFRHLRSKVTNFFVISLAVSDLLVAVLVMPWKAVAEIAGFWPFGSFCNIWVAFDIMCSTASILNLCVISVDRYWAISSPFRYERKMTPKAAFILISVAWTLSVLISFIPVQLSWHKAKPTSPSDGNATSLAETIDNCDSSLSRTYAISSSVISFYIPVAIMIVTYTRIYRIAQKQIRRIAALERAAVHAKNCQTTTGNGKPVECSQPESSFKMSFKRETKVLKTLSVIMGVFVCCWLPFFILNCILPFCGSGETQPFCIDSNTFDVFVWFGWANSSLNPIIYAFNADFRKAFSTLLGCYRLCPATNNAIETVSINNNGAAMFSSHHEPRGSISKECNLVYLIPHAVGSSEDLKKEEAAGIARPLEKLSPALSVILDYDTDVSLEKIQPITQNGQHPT
Sequence of Beta-2 adrenergic receptor (P07550 whole entry): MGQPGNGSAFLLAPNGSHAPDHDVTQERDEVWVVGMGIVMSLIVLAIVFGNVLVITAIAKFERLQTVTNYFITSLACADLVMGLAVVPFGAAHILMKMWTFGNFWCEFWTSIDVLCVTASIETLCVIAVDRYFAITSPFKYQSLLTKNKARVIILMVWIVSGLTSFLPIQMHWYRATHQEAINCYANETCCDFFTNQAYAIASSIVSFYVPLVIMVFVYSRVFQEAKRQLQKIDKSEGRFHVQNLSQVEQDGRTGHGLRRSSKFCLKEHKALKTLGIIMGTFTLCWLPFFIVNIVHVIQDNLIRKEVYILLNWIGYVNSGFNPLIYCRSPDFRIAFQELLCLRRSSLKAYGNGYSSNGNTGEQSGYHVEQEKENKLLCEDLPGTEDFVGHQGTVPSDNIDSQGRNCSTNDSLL
Sequence of 3',5'-cyclic-AMP phosphodiesterase 4D (Q08499 whole entry): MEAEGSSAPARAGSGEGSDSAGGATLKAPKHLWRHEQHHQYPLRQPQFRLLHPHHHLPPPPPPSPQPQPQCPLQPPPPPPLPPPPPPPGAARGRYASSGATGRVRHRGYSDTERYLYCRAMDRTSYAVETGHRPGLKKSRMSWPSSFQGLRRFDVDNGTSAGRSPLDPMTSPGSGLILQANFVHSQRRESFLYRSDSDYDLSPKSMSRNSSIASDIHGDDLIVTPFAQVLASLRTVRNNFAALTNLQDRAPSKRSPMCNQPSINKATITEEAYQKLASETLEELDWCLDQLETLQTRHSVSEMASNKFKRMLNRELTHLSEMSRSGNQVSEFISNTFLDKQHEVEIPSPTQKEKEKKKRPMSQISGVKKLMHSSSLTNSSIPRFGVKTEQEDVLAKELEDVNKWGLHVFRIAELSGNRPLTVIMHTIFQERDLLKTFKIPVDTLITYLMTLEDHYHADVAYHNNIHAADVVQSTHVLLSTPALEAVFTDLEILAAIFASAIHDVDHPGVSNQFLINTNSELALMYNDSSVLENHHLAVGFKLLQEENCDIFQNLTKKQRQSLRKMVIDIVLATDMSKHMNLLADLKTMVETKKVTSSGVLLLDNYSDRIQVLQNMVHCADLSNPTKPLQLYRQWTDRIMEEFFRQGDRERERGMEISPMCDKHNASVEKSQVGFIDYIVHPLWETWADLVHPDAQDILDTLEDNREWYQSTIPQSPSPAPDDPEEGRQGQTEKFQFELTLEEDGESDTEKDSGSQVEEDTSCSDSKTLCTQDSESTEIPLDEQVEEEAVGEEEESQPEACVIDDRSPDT
Sequence of Delta-type opioid receptor (P41143 whole entry): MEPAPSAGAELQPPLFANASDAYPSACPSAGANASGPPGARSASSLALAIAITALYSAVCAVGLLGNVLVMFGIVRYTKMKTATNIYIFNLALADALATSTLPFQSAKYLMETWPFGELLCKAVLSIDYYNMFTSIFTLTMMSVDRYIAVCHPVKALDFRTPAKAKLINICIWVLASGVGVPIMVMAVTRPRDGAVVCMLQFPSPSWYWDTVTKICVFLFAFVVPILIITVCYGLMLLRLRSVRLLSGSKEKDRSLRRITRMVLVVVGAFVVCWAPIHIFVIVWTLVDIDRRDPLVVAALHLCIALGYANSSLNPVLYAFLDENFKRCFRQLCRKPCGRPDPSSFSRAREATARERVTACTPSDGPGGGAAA
Sequence of Vascular endothelial growth factor receptor 2 (P35968 whole entry): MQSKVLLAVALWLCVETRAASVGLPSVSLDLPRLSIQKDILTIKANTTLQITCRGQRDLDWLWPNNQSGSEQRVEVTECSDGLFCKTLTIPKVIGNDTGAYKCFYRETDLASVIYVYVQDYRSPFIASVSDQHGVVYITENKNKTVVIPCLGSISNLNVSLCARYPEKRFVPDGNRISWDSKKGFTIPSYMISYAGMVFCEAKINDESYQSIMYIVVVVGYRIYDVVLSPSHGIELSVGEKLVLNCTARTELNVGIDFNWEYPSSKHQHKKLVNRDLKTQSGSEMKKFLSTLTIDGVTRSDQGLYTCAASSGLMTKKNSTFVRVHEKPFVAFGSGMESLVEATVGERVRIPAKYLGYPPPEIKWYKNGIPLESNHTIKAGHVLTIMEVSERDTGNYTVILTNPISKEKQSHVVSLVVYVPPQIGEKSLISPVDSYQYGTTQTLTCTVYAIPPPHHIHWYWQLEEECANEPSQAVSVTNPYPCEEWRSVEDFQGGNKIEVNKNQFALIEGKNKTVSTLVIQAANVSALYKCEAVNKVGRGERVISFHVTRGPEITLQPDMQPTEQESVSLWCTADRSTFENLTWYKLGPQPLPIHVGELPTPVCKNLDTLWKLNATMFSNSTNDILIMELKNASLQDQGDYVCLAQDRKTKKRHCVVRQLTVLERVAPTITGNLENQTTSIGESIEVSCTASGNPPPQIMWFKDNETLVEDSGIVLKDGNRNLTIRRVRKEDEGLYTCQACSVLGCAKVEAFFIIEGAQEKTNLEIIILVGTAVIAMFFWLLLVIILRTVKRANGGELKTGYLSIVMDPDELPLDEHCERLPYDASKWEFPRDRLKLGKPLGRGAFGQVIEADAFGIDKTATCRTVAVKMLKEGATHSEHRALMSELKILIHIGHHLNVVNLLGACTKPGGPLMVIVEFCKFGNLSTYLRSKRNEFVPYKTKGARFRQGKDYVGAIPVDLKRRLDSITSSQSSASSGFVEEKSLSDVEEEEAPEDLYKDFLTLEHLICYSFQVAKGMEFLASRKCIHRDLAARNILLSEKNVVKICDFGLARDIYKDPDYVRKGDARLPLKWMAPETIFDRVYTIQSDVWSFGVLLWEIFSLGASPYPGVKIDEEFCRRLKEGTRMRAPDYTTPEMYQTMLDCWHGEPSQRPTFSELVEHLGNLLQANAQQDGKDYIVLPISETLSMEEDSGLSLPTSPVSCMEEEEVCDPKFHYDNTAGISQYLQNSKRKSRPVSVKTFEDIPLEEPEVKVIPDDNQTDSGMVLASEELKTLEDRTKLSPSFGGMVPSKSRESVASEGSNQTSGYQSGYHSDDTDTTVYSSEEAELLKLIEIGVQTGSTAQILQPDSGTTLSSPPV

## Cc1onc(-c2ccccc2)c1-c1ccc(S(N)(=O)=O)cc1 [VALDECOXIB]
D(1A) dopamine receptor
  AC50: > 10 µM
[1]
  AC50: > 30 µM
[2]
  AC50: > 30 µM
[3]
  AC50: > 30 µM
Histamine H3 receptor
  AC50: > 30 µM
Progesterone receptor
  AC50: > 30 µM
[4]
  AC50: > 30 µM
[5]
  AC50: > 30 µM
[6]
  AC50: > 10 µM
[7]
  AC50: > 10 µM

## O=C1CCc2cc(OCCCCc3nnnn3C3CCCCC3)ccc2N1 [CILOSTAZOL]
D(1A) dopamine receptor
  AC50: > 30 µM
[1]
  AC50: > 30 µM
[2]
  AC50: 30 µM
[3]
  AC50: > 30 µM
Histamine H3 receptor
  AC50: > 30 µM
Progesterone receptor
  AC50: > 30 µM
[4]
  AC50: > 30 µM
[6]
  AC50: 23.4 µM
[7]
  AC50: > 30 µM

## C[C@@H](NCCCc1cccc(C(F)(F)F)c1)c1cccc2ccccc12
D(1A) dopamine receptor
  AC50: > 30 µM
[1]
  AC50: > 30 µM
[2]
  AC50: > 30 µM
[3]
  AC50: > 30 µM
Histamine H3 receptor
  AC50: > 30 µM
Progesterone receptor
  AC50: > 30 µM
[4]
  AC50: > 30 µM
[6]
  AC50: > 30 µM
[7]
  AC50: > 30 µM

## OC[C@H]1O[C@@](CO)(O[C@H]2O[C@H](CO)[C@@H](O)[C@H](O)[C@H]2O)[C@@H](O)[C@@H]1O [SUCROSE]
D(1A) dopamine receptor
  AC50: > 30 µM
[1]
  AC50: > 30 µM
[2]
  AC50: > 30 µM
[3]
  AC50: > 30 µM
Histamine H3 receptor
  AC50: > 30 µM
Progesterone receptor
  AC50: > 30 µM
[4]
  AC50: > 30 µM
[6]
  AC50: > 30 µM
[7]
  AC50: > 30 µM

## C=CC[C@@H]1/C=C(\C)C[C@H](C)C[C@H](OC)[C@H]2O[C@@](O)(C(=O)C(=O)N3CCCC[C@H]3C(=O)O[C@H](/C(C)=C/[C@@H]3CC[C@@H](O)[C@H](OC)C3)[C@H](C)[C@@H](O)CC1=O)[C@H](C)C[C@@H]2OC [TACROLIMUS ANHYDROUS]
D(1A) dopamine receptor
  AC50: > 30 µM
[1]
  AC50: > 30 µM
[2]
  AC50: 7.49 µM and > 30 µM
[3]
  AC50: > 30 µM
Histamine H3 receptor
  AC50: > 30 µM
Progesterone receptor
  AC50: > 30 µM
[4]
  AC50: > 30 µM
[6]
  AC50: > 30 µM
[7]
  AC50: 7.2 µM and > 10 µM

## COc1ccccc1Oc1c(NS(=O)(=O)c2ccc(C(C)(C)C)cc2)nc(-c2ncccn2)nc1OCCO [BOSENTAN]
D(1A) dopamine receptor
  AC50: > 10 µM
[1]
  AC50: > 30 µM
[2]
  AC50: > 30 µM
[3]
  AC50: > 30 µM
Histamine H3 receptor
  AC50: > 10 µM
Progesterone receptor
  AC50: > 30 µM
[4]
  AC50: > 30 µM
[6]
  AC50: > 30 µM
[7]
  AC50: > 10 µM

## CCN1CCN(Cc2ccc(Nc3ncc(F)c(-c4cc(F)c5nc(C)n(C(C)C)c5c4)n3)nc2)CC1 [ABEMACICLIB]
D(1A) dopamine receptor
  AC50: > 30 µM
[1]
  AC50: > 30 µM
[2]
  AC50: > 30 µM
[3]
  AC50: > 30 µM
Histamine H3 receptor
  AC50: 0.31 µM
Progesterone receptor
  AC50: > 30 µM
[4]
  AC50: > 30 µM
[6]
  AC50: 3.2 µM
[7]
  AC50: > 30 µM

## N[C@@H](CC(=O)N1CCn2c(nnc2C(F)(F)F)C1)Cc1cc(F)c(F)cc1F [SITAGLIPTIN]
D(1A) dopamine receptor
  AC50: > 30 µM
[1]
  AC50: > 30 µM
[2]
  AC50: > 30 µM
[3]
  AC50: > 30 µM
Histamine H3 receptor
  AC50: > 30 µM
Progesterone receptor
  AC50: > 30 µM
[4]
  AC50: > 30 µM
[6]
  AC50: > 30 µM
[7]
  AC50: > 30 µM

## COc1cc2nccc(Oc3ccc(NC(=O)C4(C(=O)Nc5ccc(F)cc5)CC4)cc3)c2cc1OC [CABOZANTINIB]
D(1A) dopamine receptor
  AC50: > 30 µM
[1]
  AC50: > 30 µM
[2]
  AC50: > 30 µM
[3]
  AC50: > 30 µM
Histamine H3 receptor
  AC50: > 30 µM
Progesterone receptor
  AC50: > 30 µM
[4]
  AC50: > 30 µM
[6]
  AC50: 10 µM
[7]
  AC50: > 30 µM

## CC(C)c1nc(N(C)S(C)(=O)=O)nc(-c2ccc(F)cc2)c1/C=C/[C@@H](O)C[C@@H](O)CC(=O)O [ROSUVASTATIN]
D(1A) dopamine receptor
  AC50: > 30 µM
[1]
  AC50: > 30 µM
[2]
  AC50: > 30 µM
[3]
  AC50: > 30 µM
Histamine H3 receptor
  AC50: > 30 µM
Progesterone receptor
  AC50: > 30 µM
[4]
  AC50: > 30 µM
[6]
  AC50: 4.16 µM
[7]
  AC50: > 30 µM

## CC(S)C(=O)NCC(=O)O (centres undefined) [TIOPRONIN]
D(1A) dopamine receptor
  AC50: > 30 µM
[1]
  AC50: > 30 µM
[2]
  AC50: > 30 µM
[3]
  AC50: > 30 µM
Histamine H3 receptor
  AC50: > 30 µM
Progesterone receptor
  AC50: > 30 µM
[4]
  AC50: > 30 µM
[6]
  AC50: > 30 µM
[7]
  AC50: > 30 µM

## CC(C)Cc1ccc(C(C)C(=O)O)cc1 (centres undefined) [IBUPROFEN]
D(1A) dopamine receptor
  AC50: > 10 µM
[1]
  AC50: > 30 µM
[2]
  AC50: > 30 µM
[3]
  AC50: > 30 µM
Histamine H3 receptor
  AC50: > 10 µM
[4]
  AC50: > 30 µM
[5]
  AC50: > 30 µM
[6]
  AC50: > 30 µM
[7]
  AC50: > 10 µM
